In patent EP4640674A1, “CRYSTAL FORMS OF ETHOXIMOD, PREPARATION METHOD THEREFOR AND USE THEREOF” (Jiankuan (Suzhou) Biotechnology Co., Ltd, priority 2022, dated 2024):
Entries after “also recorded” stand apart in the source; their conditions may differ.

Key:
[1] = Dynamic vapor sorption (hygroscopicity); type: physicochemical; details: for hygroscopic weight gain (vapor sorption): 25 °C/90% RH; for hygroscopic weight gain (vapor sorption) / hygroscopicity / crystal form after the dynamic vapor sorption test (XRPD): hydrochloride; for hygroscopicity: DVS, 90% RH; for crystal form after the dynamic vapor sorption test (XRPD): after DVS test
From the text: In the examples of the present application, the instrument used for the X-ray powder diffraction test is the D2 Phaser produced by Bruker. The instrument used for the differential scanning calorimetry test is the differential scanning calorimeter DSC 250 produced by TA Instruments. The instrument used for the thermogravimetric analysis is the thermogravimetric analyzer TGA 55 produced by TA Instruments. The instrument used for the FT-IR test is the Fourier infrared spectrometer ID1-summit produced by Thermo. The instrument used for the dynamic vapor sorption test is the DVS Intrinsic produced by Surface Measurement Systems (SMS). The instrument used for the microscopy is the microscope NJF-120A produced by Suzhou Nanguang Electronic Technology Co., Ltd.
Samples of the crystal form A and the crystal form B of ethoximod were taken for a dynamic vapor sorption test.

[2] = Bulk density and tap density test, Hausner ratio and compressibility; type: physicochemical; details: hydrochloride; for Compressibility: (tap density - bulk density)/tap density; for Hausner Ratio: tap density/bulk density
Description: In this experiment, the measurement was performed by using a tap instrument according to a fixed volume method. Specific operations are as follows: the weighed powders were loaded into a 50 mL graduated cylinder, and the graduated cylinder was fixed on a support; the tap instrument was set to vibrate 55±5 times per minute for 6-8 min; a change in a volume of the powders in the measuring cup was measured. A ratio of a mass of the powders to a volume (50 mL) of the materials before the tap is the bulk density of the powders, and a ratio of the mass of the powders to a volume of the materials after the tap is the tap density of the powders. Methods for converting Hausner ratio and compressibility are as follows, and the description of Hausner ratio and flowability is shown in Table 8: Table 6 Physical properties of crystal form A and crystal form B

Row | vapor sorption weight gain ([1]; 24.3 °C and 90% RH) [%] | hygroscopic weight gain (vapor sorption) [1] [%] | Compressibility [2] | Bulk Density [2] [g/mL] | Tap Density [2] [g/mL] | Hausner Ratio [2] | SMILES | hygroscopicity [1] | crystal form after the dynamic vapor sorption test (XRPD) [1]
1 | 0.14 | 0.14 | 54.0 | 0.2578 | 0.5604 | 2.2 | CCc1nc(-c2ccc(-c3ccc(CCC(N)(CO)CO)cc3)cc2)co1.Cl [crystal form A, 2-amino-2-{2-(4'-(2-ethyloxazol-4-yl)-[1,1'-biphenyl]-4-yl)ethyl}-1,3-propylene glycol hydrochloride] | no or almost no hygroscopicity | not subjected to crystal transformation
2 |  | 4.6 | 62.0 | 0.0742 | 0.1953 | 2.6 | CCc1nc(-c2ccc(-c3ccc(CCC(N)(CO)CO)cc3)cc2)co1.Cl [crystal form B, 2-amino-2-{2-(4'-(2-ethyloxazol-4-yl)-[1,1'-biphenyl]-4-yl)ethyl}-1,3-propylene glycol hydrochloride] | with hygroscopicity; also recorded: has hygroscopicity | crystal transformed into the crystal form C; also recorded: crystal transformed into a crystal form C
